PubChem BioAssay (NCI)
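A five-concentration, 48-hour dose response in 96-well plates underlies each endpoint, interpolated linearly between surrounding concentrations. GI50 marks 50% less growth. The concentration for full growth arrest is given as TGI.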

Assays:
Test in all cases: DTP human tumour cell line panel, 48 h
[1] = system: NCI-H226 lung
[2] = system: A498 renal
[3] = system: NCI-H23 lung
[4] = system: EKVX NSCLC
[5] = system: U251 CNS
[6] = system: OVCAR-5 ovarian
[7] = system: HCT-116 colon
[8] = system: SN12C renal
[9] = system: RPMI-8226 leukemia
[10] = system: HCT-15 colon

SMILES: O=C(O)CS(=O)c1ccc2c3c(cccc13)C(=O)c1ccccc1-2 (stereo not given)
- TGI [1]: > 100 µM
- TGI [2]: > 100 µM
- TGI [3]: > 100 µM
- TGI [4]: > 100 µM
- TGI [5]: > 100 µM
- TGI [6]: > 100 µM
- TGI [7]: > 100 µM
- TGI [8]: > 100 µM
- TGI [9]: > 100 µM
- TGI [10]: > 100 µM

SMILES: O=C(Nc1ccc(Cl)cc1)c1cccc([N+](=O)[O-])c1O
- TGI [1]: 7.95 µM
- TGI [2]: 7.32 µM
- TGI [3]: 6.55 µM
- TGI [4]: 14.8 µM
- TGI [5]: 48.5 µM
- TGI [6]: > 100 µM
- TGI [7]: 20 µM
- TGI [8]: > 74.7 µM
- TGI [9]: 7.2 µM
- TGI [10]: > 88.3 µM

SMILES: COc1cc(C(=O)O[C@H](C(=O)NCCNC(=O)[C@@H](OC(=O)c2cc(OC)cc3c(C)cccc23)[C@]2(C)CO2)[C@]2(C)CO2)c2cccc(C)c2c1
- GI50 [1]: 0.66 µM
- TGI [1]: 2.11 µM
- GI50 [2]: 2.21 µM
- TGI [2]: 4.35 µM
- GI50 [3]: < 0.01 µM
- TGI [3]: 0.0987 µM
- GI50 [4]: 0.21 µM
- TGI [4]: 1.55 µM
- GI50 [5]: 0.0225 µM
- TGI [5]: 0.306 µM
- GI50 [6]: 0.381 µM
- TGI [6]: 2.08 µM
- GI50 [7]: < 0.0285 µM
- TGI [7]: 0.298 µM
- GI50 [8]: 0.0211 µM
- TGI [8]: 0.263 µM
- GI50 [9]: 0.282 µM
- TGI [9]: 10.6 µM
- GI50 [10]: 0.179 µM
- TGI [10]: 1.33 µM

SMILES: NC(Cc1ccccc1)=NCC(=O)O
- TGI [1]: > 100 µM
- TGI [2]: > 100 µM
- TGI [3]: > 100 µM
- TGI [4]: > 100 µM
- TGI [5]: > 100 µM
- TGI [6]: > 100 µM
- TGI [7]: > 100 µM
- TGI [8]: > 100 µM
- TGI [9]: > 100 µM
- TGI [10]: > 100 µM

SMILES: O=C(Nc1ccc(-n2cc(-c3ccncc3)c(-c3ccc(O)c(Cl)c3)n2)cc1)c1cc(Cl)cc(Cl)c1
- GI50 [1]: > 32.5 µM
- TGI [1]: > 32.5 µM
- GI50 [2]: > 32.5 µM
- TGI [2]: > 32.5 µM
- GI50 [3]: 12.1 µM
- TGI [3]: > 32.5 µM
- GI50 [4]: 18.2 µM
- TGI [4]: > 32.5 µM
- GI50 [5]: 1.32 µM
- TGI [5]: > 32.5 µM
- GI50 [6]: > 32.5 µM
- TGI [6]: > 32.5 µM
- GI50 [7]: 1.57 µM
- TGI [7]: > 32.5 µM
- GI50 [8]: 2.44 µM
- TGI [8]: > 32.5 µM
- GI50 [9]: 1.07 µM
- TGI [9]: 6.18 µM
- GI50 [10]: 0.908 µM
- TGI [10]: > 32.5 µM

SMILES: C\C=C/C=C/C=C/C(=O)O
- TGI [1]: > 100 µM
- TGI [2]: > 100 µM
- TGI [3]: > 100 µM
- TGI [4]: > 100 µM
- TGI [5]: > 100 µM
- TGI [6]: > 100 µM
- TGI [7]: > 100 µM
- TGI [8]: > 100 µM
- TGI [9]: > 100 µM
- TGI [10]: > 100 µM
